Results published in patent US4808409A, “Low cariogenic sweetening agents” (Board of Trustees, University of Illinois, priority 1984, dated 1989).
≈ marks a conversion by molar mass, not a printed value.

Assays:
[1] = system: S. mutans; test: Cariogenicity: acid production by S. mutans from sweetener; format: cell-based; details: 500 micrograms per unit volume sucrose
Procedure: In a first test, the ability of microbes to utilize this sweetener source as a nutrient and convert it to acidic by-products was determined.

[2] = system: human taste panel; test: Human taste panel magnitude estimation of sweetness intensity and pleasantness; details: for Sweetness intensity at matched concentration: sucrose 0.27 M
From the text: Solutions were presented to the subjects in a randomized fashion and were sampled in duplicate. After tasting, each solution was expectorated, and the mouth was washed with distilled water.

[3] = system: male Swiss-Webster mice; test: in vivo; details: for Acute toxicity for mice / Mortality at doses up to 2 g/kg: in words; for Mortality at doses up to 2 g/kg: up to 2 g/kg body weight
Procedure: (§1) Compounds were suspended in a minimum volume of 1% sodium carboxymethylcellulose, and were administered by oral intubation at the doses indicated in Table II.
(§2) ^a Male SwissWebster mice (9 or 10 animals per dose).
(§3) ^d Mortality = number of mice dying within 14 days/number of starting
(§4) ^e Mortality = number of mice dying within 24 hours/number of startin

[4] = in vivo; details: mouse, in vivo, po
Procedure: as §1, §2, §3, §4

[5] = Body weight variation in mice following oral administration; details: for Day 14 total body weight vs control values: Day 14, in words
Procedure: as §1

[6] = Thermostability of neat hernandulcin at 100° C. by TLC; format: physicochemical
[7] = Water solubility; format: physicochemical
[8] = Stability in citrate-phosphate-borate buffer solutions by TLC; format: physicochemical
Procedure: The first of these manipulations was conducted by storage of this compound in citrate-phosphate-borate buffer solutions, at the pH levels 2, 3, 4, 6, 7, 8, 10, and 12. […] Solutions were exposed to the atmosphere after their constitution.
Compound decomposition was assessed by counting the number of zones apparent by TLC analysis 1 hour, 3 hours, 6 hours, 24 hours, 1 week and 2 weeks after solution composition.

[9] = system: Salmonella typhimurium strain TM677; test: Forward mutation assay; format: cell-based; details: summary in words
[10] = scale 0-100, natural hernandulcin 2.5 × 10^-4 M
[11] = synthetic hernandulcin, 100° C., 24 hours, TLC zone areas
[12] = synthetic hernandulcin, 60° C., 1 week and 2 weeks
[13] = natural hernandulcin 2.5 × 10^-4 M

Structure (SMILES): OC[C@H]1O[C@@](CO)(O[C@H]2O[C@H](CO)[C@@H](O)[C@H](O)[C@H]2O)[C@@H](O)[C@@H]1O [Sucrose, reference compound]
- Rate of acid production at 500 micrograms per unit volume [1]: 2.8×10^-4 mEq acid/min.
- Sweetness intensity, sucrose 0.031 M ([2]; 0.031 M, scale 0-100, mean (standard error)): 6.6 (2.44)
- Sweetness pleasantness, sucrose 0.031 M ([2]; 0.031 M, scale -100 to +100, mean (standard error)): -3.2 (6.44)
- Sweetness intensity, sucrose 0.062 M ([2]; 0.062 M, scale 0-100, mean (standard error)): 7.8 (1.96)
- Sweetness pleasantness, sucrose 0.062 M ([2]; 0.062 M, scale -100 to +100, mean (standard error)): -1.6 (7.61)
- Sweetness intensity, sucrose 0.125 M ([2]; 0.125 M, scale 0-100, mean (standard error)): 21.9 (3.30)
- Sweetness pleasantness, sucrose 0.125 M ([2]; 0.125 M, scale -100 to +100, mean (standard error)): 19.2 (5.23)
- Sweetness intensity, sucrose 0.25 M ([2]; 0.25 M, scale 0-100, mean (standard error)): 38.1 (4.43)
- Sweetness pleasantness, sucrose 0.25 M ([2]; 0.25 M, scale -100 to +100, mean (standard error)): 31.8 (6.34)
- Sweetness intensity, sucrose 0.50 M ([2]; 0.50 M, scale 0-100, mean (standard error)): 44.4 (4.63)
- Sweetness pleasantness, sucrose 0.50 M ([2]; 0.50 M, scale -100 to +100, mean (standard error)): 37.8 (5.96)
- Sweetness intensity, sucrose 1.0 M ([2]; 1.0 M, scale 0-100, mean (standard error)): 75.5 (4.73)
- Sweetness pleasantness, sucrose 1.0 M ([2]; 1.0 M, scale -100 to +100, mean (standard error)): 2.5 (9.57)
- Sweetness intensity, sucrose 2.0 M ([2]; 2.0 M, scale 0-100, mean (standard error)): 89.1 (2.93)
- Sweetness pleasantness, sucrose 2.0 M ([2]; 2.0 M, scale -100 to +100, mean (standard error)): -20.2 (12.69)
- Sucrose concentration providing a standard panel response to sucrose intensity ([2]; determined graphically): 0.27 M
- Sweetness intensity at matched concentration [2, 10]: 40

Structure (SMILES): CC1=CC(=O)CCC1 [3-Methyl-2-cyclohexen-1-one, 3-methyl-2-cyclohexen-1-one]
- Estimated LD50 ([3]; mouse, in vivo, po): 1.6 ± 0.13 g/kg
- Mortality at 1.1 g/kg ([3]; oral, 1.1 g/kg): 0/10
- Mortality at 1.3 g/kg ([3]; oral, 1.3 g/kg): 2/10
- Mortality at 1.4 g/kg ([3]; oral, 1.4 g/kg): 4/10
- Mortality at 1.6 g/kg ([3]; oral, 1.6 g/kg): 5/10
- Mortality at 2.0 g/kg (24 hours) ([3]; oral, 2.0 g/kg, 24 hours): 8/10
- Mortality at 2.4 g/kg ([3]; oral, 2.4 g/kg): 10/10
- Acute toxicity for mice ([3]; oral): essentially non-toxic
- LD50 at 24 h [4]: < 2000 mg/kg

Structure (SMILES): CC(=O)CCC=C(C)C [6-Methyl-5-hepten-2-one, 6-methyl-5-hepten-2-one]
- Mortality at 1.0 g/kg ([3]; oral, 1.0 g/kg, 14 days, hernandulcin = synthetic): 0/9
- Mortality at 2.0 g/kg (14 days) ([3]; oral, 2.0 g/kg, 14 days, hernandulcin = synthetic): 0/9
- Acute toxicity for mice ([3]; oral): essentially non-toxic
- Estimated LD50 ([3]; oral, male mice, hernandulcin = synthetic (two enantiomers)): > 2.0 g/kg
- Mortality at doses up to 2 g/kg ([3]; oral): no mortality
- Body weight, Day 1 (1.0 g/kg) ([5]; 1.0 g/kg oral, Day 1, hernandulcin = synthetic): 28.2 ± 0.8 g
- Body weight, Day 3 (1.0 g/kg) ([5]; 1.0 g/kg oral, Day 3, hernandulcin = synthetic): 26.3 ± 0.8 g
- Body weight, Day 7 (1.0 g/kg) ([5]; 1.0 g/kg oral, Day 7, hernandulcin = synthetic): 24.7 ± 0.9 g
- Body weight, Day 14 (1.0 g/kg) ([5]; 1.0 g/kg oral, Day 14, hernandulcin = synthetic): 28.0 ± 0.8 g
- Body weight, pre-drug (1.0 g/kg group) ([5]; 1.0 g/kg oral, pre-drug, hernandulcin = synthetic): 27.7 ± 0.8 g
- Body weight, Day 1 (2.0 g/kg) ([5]; 2.0 g/kg oral, Day 1, hernandulcin = synthetic): 28.6 ± 0.8 g
- Body weight, Day 3 (2.0 g/kg) ([5]; 2.0 g/kg oral, Day 3, hernandulcin = synthetic): 26.8 ± 0.9 g
- Body weight, Day 7 (2.0 g/kg) ([5]; 2.0 g/kg oral, Day 7, hernandulcin = synthetic): 25.0 ± 0.9 g
- Body weight, Day 14 (2.0 g/kg) ([5]; 2.0 g/kg oral, Day 14, hernandulcin = synthetic): 24.5 ± 0.8 g
- Body weight, pre-drug (2.0 g/kg group) ([5]; 2.0 g/kg oral, pre-drug, hernandulcin = synthetic): 28.8 ± 0.8 g
- Day 14 total body weight vs control values [5]: Significant difference from controls
- Day 14 total body weight vs control values ([5]; listed as 6-methyl-5-hepten-2-one): significantly different from control values

Structure (SMILES): CC(C)=CCC[C@@](C)(O)[C@H]1CCC(C)=CC1=O (relative stereo) [Hernandulcin, 6-(1',5'-dimethyl-1'-hydroxyhex-4'-en-1'-yl)-3-methyl-2-cyclohexen-1-one]
- Acute toxicity for mice ([3]; oral): non-toxic
- Mortality at doses up to 2 g/kg ([3]; oral): no mortality
- remaining at 24 h ([6]; neat compound, read-out: Compound remaining unchanged): ~60%
- Conversion to 3-methyl-2-cyclohexen-1-one [6, 11]: ~10%
- Conversion to 6-methyl-5-hepten-2-one [6, 11]: ~10%
- solubility [7]: ~500 µg/mL (≈ 2120 µM)
- Body weight, Day 1 (1.0 g/kg) ([5]; mouse, in vivo, po): 27.1 ± 0.8 g
- Body weight, Day 1 (2.0 g/kg) ([5]; mouse, in vivo, po): 25.6 ± 0.9 g
- Body weight, Day 3 (1.0 g/kg) ([5]; mouse, in vivo, po): 26.7 ± 0.8 g
- Body weight, Day 3 (2.0 g/kg) ([5]; mouse, in vivo, po): 26.3 ± 0.9 g
- Body weight, Day 7 (1.0 g/kg) ([5]; mouse, in vivo, po): 27.9 ± 0.8 g
- Body weight, Day 7 (2.0 g/kg) ([5]; mouse, in vivo, po): 26.0 ± 0.9 g
- Body weight, Day 14 (1.0 g/kg) ([5]; mouse, in vivo, po): 28.1 ± 0.8 g
- Body weight, Day 14 (2.0 g/kg) ([5]; mouse, in vivo, po): 27.6 ± 0.9 g
- Body weight, pre-drug (1.0 g/kg group) ([5]; mouse, in vivo, po): 29.3 ± 0.8 g
- Body weight, pre-drug (2.0 g/kg group) ([5]; mouse, in vivo, po): 26.0 ± 0.9 g
- Detectability of hernandulcin after storage [8, 12]: detectable at all pH's
- pH dependence of decomposition [8, 12]: greater degrees of decomposition being observed at the acid and alkaline pH extremes
- Breakdown in buffer at 60° C., 1 week and 2 weeks ([8]; synthetic hernandulcin, about 0.1 wt. %, pH 2-12, 60° C.): substantial breakdown was apparent in all solutions
- Decomposition in buffer at 60° C., up to 24 hours ([8]; synthetic hernandulcin, about 0.1 wt. %, pH 2-12, 60° C., up to 24 hours): no decomposition was observed
- Breakdown in buffer at room temperature ([8]; synthetic hernandulcin, about 0.1 wt. %, pH 2-12, room temperature, up to two weeks): no compound breakdown was evident
- Stability to hydrolysis ([8]; wide pH range, up to about 60° C.): relatively stable to hydrolysis over a wide pH range
- Mutagenicity [9]: non-mutagenic
- EC (sweetness equal to 0.27 M sucrose) ([2]; Homo sapiens, natural hernandulcin, distilled water, 17 participants, read-out: Concentration matching the sweetness of 0.27 M sucrose): 250 µM
- Bitterness judged by the panel ([2]; in words, natural hernandulcin): moderate bitterness
- Off- and after-tastes judged by the panel ([2]; in words, natural hernandulcin): significant off- and after-tastes
- Pleasantness judged by the panel ([2]; in words, natural hernandulcin): less pleasant than sucrose
- After-taste intensity [2, 13]: 30
- After-taste pleasantness [2, 13]: 0
- Bitterness [2, 13]: 15
- Off-taste intensity [2, 13]: 33
- Off-taste pleasantness [2, 13]: -5
- Concentration matching the sweetness of 0.27 M sucrose ([2]; natural hernandulcin, distilled water, 17 participants): ~250 µM
- Sweetness intensity, hernandulcin 1.06 × 10^-5 M ([2]; natural, 1.06 × 10^-5 M, scale 0-100, mean (standard error)): 9.7 (4.19)
- Sweetness pleasantness, hernandulcin 1.06 × 10^-5 M ([2]; natural, 1.06 × 10^-5 M, scale -100 to +100, mean (standard error)): 1.2 (5.58)
- Sweetness intensity, hernandulcin 2.11 × 10^-5 M ([2]; natural, 2.11 × 10^-5 M, scale 0-100, mean (standard error)): 8.8 (2.37)
- Sweetness pleasantness, hernandulcin 2.11 × 10^-5 M ([2]; natural, 2.11 × 10^-5 M, scale -100 to +100, mean (standard error)): 2.6 (6.00)
- Sweetness intensity, hernandulcin 4.24 × 10^-5 M ([2]; natural, 4.24 × 10^-5 M, scale 0-100, mean (standard error)): 8.8 (3.18)
- Sweetness pleasantness, hernandulcin 4.24 × 10^-5 M ([2]; natural, 4.24 × 10^-5 M, scale -100 to +100, mean (standard error)): 1.2 (4.18)
- Sweetness intensity, hernandulcin 8.47 × 10^-5 M ([2]; natural, 8.47 × 10^-5 M, scale 0-100, mean (standard error)): 15.8 (4.10)
- Sweetness pleasantness, hernandulcin 8.47 × 10^-5 M ([2]; natural, 8.47 × 10^-5 M, scale -100 to +100, mean (standard error)): 4.9 (7.67)
- Sweetness intensity, hernandulcin 16.9 × 10^-5 M ([2]; natural, 16.9 × 10^-5 M, scale 0-100, mean (standard error)): 39.7 (3.52)
- Sweetness pleasantness, hernandulcin 16.9 × 10^-5 M ([2]; natural, 16.9 × 10^-5 M, scale -100 to +100, mean (standard error)): 24.8 (7.99)
- Sweetness intensity, hernandulcin 33.9 × 10^-5 M ([2]; natural, 33.9 × 10^-5 M, scale 0-100, mean (standard error)): 44.4 (5.45)
- Sweetness pleasantness, hernandulcin 33.9 × 10^-5 M ([2]; natural, 33.9 × 10^-5 M, scale -100 to +100, mean (standard error)): 8.2 (10.70)
- Sweetness intensity, hernandulcin 67.8 × 10^-5 M ([2]; natural, 67.8 × 10^-5 M, scale 0-100, mean (standard error)): 62.7 (5.59)
- Sweetness pleasantness, hernandulcin 67.8 × 10^-5 M ([2]; natural, 67.8 × 10^-5 M, scale -100 to +100, mean (standard error)): -16.2 (9.78)
- Sweetness intensity at matched concentration [2, 10]: 40
- Sweetness pleasantness at matched concentration ([2]; scale -100 to +100, natural hernandulcin 2.5 × 10^-4 M): 15
